Usually share remaining stands for the share of the starting amount still present when the sample was taken. Read a high share remaining as greater stability.

The text below walks through data of ChEMBL document CHEMBL5550203, “A Comprehensive In Vitro Characterization of a New Class of Indole-Based Compounds Developed as Selective Haspin Inhibitors” (J Med Chem, 2024).

The conditions of data set [1]: rat, plasma, 2 h, 10 µM.
Description: Stability in rat plasma at 10 uM measured upto 120 mins by LC-MS analysis
Data set [2] is described as follows: physchem. Particulars: simulated intestinal fluid.
Description: Chemical stability in stimulated intestinal fluid assessed as compound remaining at 10 uM measured upto 120 mins by LC-MS analysis
Data set [3] can be described thus: physchem. Particulars: simulated gastric fluid.
Description: Chemical stability in stimulated gastric fluid assessed as compound remaining at 10 uM measured upto 120 mins by LC-MS analysis
The conditions of data set [4]: human, microsomes, 1 h.
For data set [5] the following is noted: human, plasma, 2 h, 10 µM.
Description: Stability in human plasma at 10 uM measured upto 120 mins by LC-MS analysis

Regarding `Cc1ccc(NC(=O)c2ccc3c(c2)c(CNCCN2CCNCC2)cn3C)cc1C`, the Stability result in data set [1], in data set [4] and in data set [5] was “Stable” each time. In addition, the share remaining at 2 h, 10 µM in data set [2] and in data set [3] was more than 80% throughout.
